Test results from publication PMC9026082, “Madecassic Acid—A New Scaffold for Highly Cytotoxic Agents” (International Journal of Molecular Sciences, 2022).

Legend:
[1] = test system: MCF7 (breast adenocarcinoma); experiment: SRB cytotoxicity assay, MCF7; format: cell-based, human; conditions: cut-off 30 μM
From the text: (§1) To assess their cytotoxicity parent, triterpenoic acids 1–3, their acetates 4–6, the amides 7–18, as well as the respective rhodamine B conjugates 19–24 were subjected to SRB assays employing several human tumor cell lines (A375, HT29, MCF-7, A2780, and HeLa) as well as non-malignant fibroblasts (NIH 3T3).
(§2) A detailed description of materials and methods can be found in the Supplementary Materials File. For biological screening, the cell lines were obtained from ATCC: A375 (CRL-1619), HT29 (HTB-38), MCF7 (HTP-22), A2780 (HTP-77), HeLa (CCL-2), and NIH 3T3 (CRL-1573) ^13C NMR spectra (Supplementary Materials) were recorded as APT spectra showing CH and CH3 groups as positive signals and CH2 groups and quaternary carbons as negative signals. […]
(§3) 2. Cytotoxicity assay (SRB assay)
(§4) The cell lines were obtained from Department of oncology (Martin-Luther-University Halle Wittenberg). Cultures were maintained as monolayers in RPMI 1640 medium with L-glutamine (Capricorn Scientific GmbH, Ebsdorfergrund, Germany) supplemented with 10% heat inactivated fetal bovine serum (Sigma -Aldrich Chemie GmbH, Steinheim, Germany) and penicillin/streptomycin (1%, Capricorn Scientific GmbH, Ebsdorfergrund, Germany) at 37 °C in a humidified atmosphere with 5% CO 2.
(§5) The cytotoxicity of the compounds was eva luated using the sulforhodamine -B (Kiton-Red S, ABCR) micro culture colorimetric assay using […] in 96 -well plates with the seeding of the cells on day 0 applying appropriate cell densities to prevent confluence of the cells during the period of the experiment. On day 1, the cells were treated with six di fferent concentrations (1, 3, 7, 12, 20 and 30 μM); thereby, the final concentration of DMSO was always < 0.5%, generally regarded as non-toxic to the cells. On day 4, the supernatant medium was discarded; the cells were fixed with 10 % trichloroacetic acid. After another day at 4 °C, the cells were washed in a strip washer and dyed with the SRB solution (100 μL, 0.4% in 1% acetic acid) for about 20 min to be followed by washing of the plates (four times, 1% acetic acid) and air -drying […]
(§6) overnight. Furthermore, tris base solution (200 μL, 10 mM) was added to each well and absorbance was measured at λ = 570 nm employing a reader (96 wells, Tecan Spectra, Crailsheim, Germany). The EC50 values were averaged from three independent experiments performed each in triplicate calculated from semi logarithmic dose response curves applying a non-linear four-parameter Hills-slope equation (GraphPad Prism5; variables top and bottom were set to 100 and 0, respectively).

[2] = test system: A2780 (ovarian carcinoma); experiment: SRB cytotoxicity assay, A2780; format: cell-based, human; conditions: for EC50: SRB assay, 72 h of treatment, cut-off 30 μM
From the text: as §1, §2, §3, §4, §5, §6

[3] = test system: NIH 3T3 (non-malignant fibroblasts); experiment: SRB cytotoxicity assay, NIH 3T3; format: cell-based; conditions: cut-off 30 μM
From the text: as §1, §2, §3, §4, §5, §6

A375 (melanoma) = experiment: SRB cytotoxicity assay, A375; format: cell-based, human; conditions: 72 h of treatment, cut-off 30 μM
From the text: as §1, §2, §3, §4, §5, §6

[4] = test system: HT29 (colorectal carcinoma); experiment: SRB cytotoxicity assay, HT29; format: cell-based, human; conditions: cut-off 30 μM
From the text: as §1, §2, §3, §4, §5, §6

[5] = test system: HeLa (cervical carcinoma); experiment: SRB cytotoxicity assay, HeLa; format: cell-based, human; conditions: 72 h of treatment, cut-off 30 μM
From the text: as §1, §2, §3, §4, §5, §6

[6] = test system: several human tumor cell lines (A375, HT29, MCF-7, A2780, and HeLa); experiment: SRB assays, cell line not given; format: cell-based; conditions: cell line not stated; for EC50: Homo sapiens, SRB assays, lowest value of the series, read-out: EC50 values as low as (analogs of madecassic acid)
From the text: as §1, with “3T3). […]” for “3T3).”
as §3, §4, §5, §6

A375 cells = experiment: Staining experiments (acridine orange, rhodamine 123, Hoechst 33,342); format: cell-based, human; conditions: 48 h, same area as rhodamine 123, not in nucleus (Hoechst 33,342)
Procedure: The mode of action—as previously shown for several triterpene-rhodamine B conjugates—is to act as mitocans. […] Thereby, Hoechst 33,342 binds selectively to DNA while rhodamine 123 is usually applied for dying mitochondria.
Figure 1 Staining experiments: A375 cells, 48 h; (A): control; (B): in the presence of 24; (C): Hoechst 33,342 staining; (D): merged (Hoechst 33,342, control); and (E): in the presence of rhodamine 123.

[7] = Homo sapiens, MCF7, 72 h of treatment
[8] = Mus musculus, NIH3T3, 72 h of treatment
[9] = Homo sapiens, HT-29, 72 h of treatment

Work on `CC1(C)CC[C@]2(C(=O)O)CC[C@]3(C)C(=CC[C@@H]4[C@@]5(C)CC[C@H](O)[C@@](C)(CO)[C@@H]5CC[C@]43C)[C@@H]2C1` [Compound 2, (3β,4α) 3,23-Dihydroxyolean-12-en-28-oic Acid] yielded an EC50 [1, 7] of 25.7 ± 1.9 µM, an EC50 ([2]; Homo sapiens, A2780) of 19.6 ± 1.6 µM and an EC50 [3, 8] of over 30 µM. The EC50 (A375 (melanoma); Homo sapiens, A-375, 72 h) was 26.3 ± 1.8 µM, the EC50 [4, 9] was over 30 µM and the EC50 ([5]; Homo sapiens, HeLa) was over 30 µM.
Work on `CC(=O)O[C@H]1CC[C@]2(C)[C@H]3CC=C4[C@@H]5CC(C)(C)CC[C@]5(C(=O)O)CC[C@@]4(C)[C@]3(C)CC[C@H]2[C@]1(C)C=O` [Compound 4, (3β,4α) 3-(Acetyloxy)-23-oxoolean-12-en-28-oic Acid] yielded an EC50 [1, 7] of 24.6 ± 4.7 µM, an EC50 (A375 (melanoma); Homo sapiens, A-375, 72 h) of over 30 µM and an EC50 [4, 9] of over 30 µM. It also gave an EC50 ([5]; Homo sapiens, HeLa) of over 30 µM.
For `CC(=O)OC[C@@]1(C)[C@@H]2CC[C@]3(C)[C@H](CC=C4[C@@H]5CC(C)(C)CC[C@]5(C(=O)O)CC[C@]43C)[C@@]2(C)CC[C@@H]1OC(C)=O` [Compound 5, (3β,4α) 3,23-Bis(acetyloxy)olean-12-en-28-oic Acid], the EC50 [1, 7] was 9.8 ± 1 µM, the EC50 ([2]; Homo sapiens, A2780) was 11.9 ± 0.5 µM and the EC50 [3, 8] was 9.6 ± 0.6 µM. It also gave an EC50 (A375 (melanoma); Homo sapiens, A-375, 72 h) of 17.1 ± 1.1 µM, an EC50 [4, 9] of 19 ± 0.6 µM and an EC50 ([5]; Homo sapiens, HeLa) of 12.4 ± 0.7 µM. The melting point was 185 to 189 °C.
For `CC(=O)OC[C@@]1(C)[C@@H]2[C@H](O)C[C@]3(C)[C@H](CC=C4[C@@H]5[C@@H](C)[C@H](C)CC[C@]5(C(=O)NCc5ccccc5)CC[C@]43C)[C@@]2(C)C[C@@H](OC(C)=O)[C@@H]1OC(C)=O` [Compound 15, (2α,3β,4α,6β) 2,3,23-Tris(acetyloxy)-N-(benzyl)-6-hydroxyurs-12-en-28-amide], the EC50 [1, 7] was 2.7 ± 0.4 µM, the EC50 ([2]; Homo sapiens, A2780) was 1.4 ± 0.1 µM and the EC50 [3, 8] was 17.9 ± 2.1 µM. For the same compound, the EC50 (A375 (melanoma); Homo sapiens, A-375, 72 h) was 1 ± 0.1 µM, the EC50 [6] was at least 0.015 µM and the EC50 [4, 9] was 2.3 ± 0.2 µM. The melting point was 90 to 95 °C.
`CC(=O)OC[C@@]1(C)[C@@H]2[C@H](O)C[C@]3(C)[C@H](CC=C4[C@@H]5[C@@H](C)[C@H](C)CC[C@]5(C(=O)Nc5ccccc5)CC[C@]43C)[C@@]2(C)C[C@@H](OC(C)=O)[C@@H]1OC(C)=O` [Compound 16, (2α,3β,4α,6β) 2,3,23-Tris(acetyloxy)-N-(phenyl)-6-hydroxyurs-12-en-28-amide] gave an EC50 [1, 7] of 4.5 ± 0.9 µM, an EC50 ([2]; Homo sapiens, A2780) of 2.2 ± 0.1 µM and an EC50 [3, 8] of 21.1 ± 1.1 µM. It also gave an EC50 (A375 (melanoma); Homo sapiens, A-375, 72 h) of 1.3 ± 0.1 µM, an EC50 [6] of at least 0.015 µM and an EC50 [4, 9] of 3.7 ± 0.4 µM. The melting point was 135 to 139 °C.
With `CCN(CC)c1ccc2c(-c3ccccc3C(=O)N3CCN(C(=O)[C@]45CC[C@@H](C)[C@H](C)[C@H]4C4=CC[C@@H]6[C@@]7(C)C[C@@H](OC(C)=O)[C@H](OC(C)=O)[C@@](C)(COC(C)=O)[C@@H]7[C@H](O)C[C@@]6(C)[C@]4(C)CC5)CC3)c3ccc(=[N+](CC)CC)cc-3oc2c1` [Compound 23, N-{6-Diethylamino-9-[2-({4[ (2α,3β,4α,6β)-2,3,23-tris(acetyloxy)-6-hydroxy-28-oxours-12-en-28-yl)-1-piperazinyl]carbonyl]phenyl]-3H-xanthen-3-ylidene)-N-ethylethanaminium Chloride] the EC50 [1, 7] was 0.054 ± 0.01 µM, the EC50 ([2]; Homo sapiens, A2780) was 0.015 ± 0.001 µM and the EC50 [3, 8] was 0.277 ± 0.03 µM. It also gave an EC50 (A375 (melanoma); Homo sapiens, A-375, 72 h) of 0.055 ± 0.01 µM, an EC50 [6] of at least 0.015 µM and an EC50 [4, 9] of 0.108 ± 0.02 µM.
In the case of `CCN(CC)c1ccc2c(-c3ccccc3C(=O)N3CCCN(C(=O)[C@]45CC[C@@H](C)[C@H](C)[C@H]4C4=CC[C@@H]6[C@@]7(C)C[C@@H](OC(C)=O)[C@H](OC(C)=O)[C@@](C)(COC(C)=O)[C@@H]7[C@H](O)C[C@@]6(C)[C@]4(C)CC5)CC3)c3ccc(=[N+](CC)CC)cc-3oc2c1` [Compound 24, N-{6-Diethylamino-9-[2-({4[ (2α,3β,4α,6β)-2,3,23-tris(acetyloxy)-6-hydroxy-28-oxours-12-en-28-yl)-1,4-diazepan-1-yl}carbonyl]phenyl]-3H-xanthen-3-ylidene)-N-ethylethanaminium Chloride], the EC50 [1, 7] is reported as 0.0162 ± 0.0045 µM, the “times more cytotoxic than parent madecassic acid” value ([2]; A2780 ovarian cancer cells) is reported as “more than 10,000 times” and the EC50 ([2]; Homo sapiens, A2780) is reported as 0.0029 ± 0.0005 µM. The EC50 [3, 8] was 0.101 ± 0.0231 µM, the EC50 (A375 (melanoma); Homo sapiens, A-375, 72 h) was 0.0095 ± 0.0015 µM and the “times more cytotoxic than parent madecassic acid” value [6] was ~10,000 times. For the same compound, the EC50 [4, 9] was 0.0127 ± 0.0038 µM, the EC50 ([5]; Homo sapiens, HeLa) was 0.0526 ± 0.0151 µM and the “mode of action / localization within the cells” value (A375 cells) was “acts as a mitocan”.
For “(3β,4α) 3-Hydroxy-23-oxoolean-12-en-28-oic Acid [Compound 1]”, the EC50 ([1]; 72 h of treatment) was 18.5 ± 2.2 µM, the EC50 [2] was 13 ± 1.6 µM and the EC50 ([3]; 72 h of treatment) was 16.7 ± 2.8 µM. For the same compound, the EC50 (A375 (melanoma)) was 17.3 ± 1.6 µM, the EC50 ([4]; 72 h of treatment) was over 30 µM and the EC50 [5] was 25 ± 4.1 µM.
